Experimental data from ChEMBL document CHEMBL4725475, “Discovery of Potent and Selective 7-Azaindole Isoindolinone-Based PI3Kγ Inhibitors” (ACS Med Chem Lett, 2020).
Values belong to the compound of their own block, whether it stands above or below them.

Legend:
Homo sapiens [1] = species: Homo sapiens; experiment: Selectivity index, ratio of inhibition for PI3Kalpha (unknown origin) to inhibition for PI3K p120 gamma (unknown origin) using phosphatidylinositol 4,5-bisphosphate as substrate in presence of ATP incubated for 60 mins by ADP-Glo assay
Homo sapiens [2] = species: Homo sapiens; experiment: Selectivity index, ratio of inhibition for PI3Kdelta (unknown origin) to inhibition for PI3K p120 gamma (unknown origin) using phosphatidylinositol 4,5-bisphosphate as substrate in presence of ATP incubated for 60 mins by ADP-Glo assay
[3] = target: T1, Phosphatidylinositol 4,5-bisphosphate 3-kinase catalytic subunit gamma isoform (Homo sapiens, UniProt P48736); experiment: Inhibition of PI3Kgamma in human THP-1 cells assessed as reduction in Akt phosphorylation at S473 residue incubated for 60 mins measured after 120 mins by alphalisa assay; type: cell-based
T1 sequence (P48736 whole entry, canonical isoform): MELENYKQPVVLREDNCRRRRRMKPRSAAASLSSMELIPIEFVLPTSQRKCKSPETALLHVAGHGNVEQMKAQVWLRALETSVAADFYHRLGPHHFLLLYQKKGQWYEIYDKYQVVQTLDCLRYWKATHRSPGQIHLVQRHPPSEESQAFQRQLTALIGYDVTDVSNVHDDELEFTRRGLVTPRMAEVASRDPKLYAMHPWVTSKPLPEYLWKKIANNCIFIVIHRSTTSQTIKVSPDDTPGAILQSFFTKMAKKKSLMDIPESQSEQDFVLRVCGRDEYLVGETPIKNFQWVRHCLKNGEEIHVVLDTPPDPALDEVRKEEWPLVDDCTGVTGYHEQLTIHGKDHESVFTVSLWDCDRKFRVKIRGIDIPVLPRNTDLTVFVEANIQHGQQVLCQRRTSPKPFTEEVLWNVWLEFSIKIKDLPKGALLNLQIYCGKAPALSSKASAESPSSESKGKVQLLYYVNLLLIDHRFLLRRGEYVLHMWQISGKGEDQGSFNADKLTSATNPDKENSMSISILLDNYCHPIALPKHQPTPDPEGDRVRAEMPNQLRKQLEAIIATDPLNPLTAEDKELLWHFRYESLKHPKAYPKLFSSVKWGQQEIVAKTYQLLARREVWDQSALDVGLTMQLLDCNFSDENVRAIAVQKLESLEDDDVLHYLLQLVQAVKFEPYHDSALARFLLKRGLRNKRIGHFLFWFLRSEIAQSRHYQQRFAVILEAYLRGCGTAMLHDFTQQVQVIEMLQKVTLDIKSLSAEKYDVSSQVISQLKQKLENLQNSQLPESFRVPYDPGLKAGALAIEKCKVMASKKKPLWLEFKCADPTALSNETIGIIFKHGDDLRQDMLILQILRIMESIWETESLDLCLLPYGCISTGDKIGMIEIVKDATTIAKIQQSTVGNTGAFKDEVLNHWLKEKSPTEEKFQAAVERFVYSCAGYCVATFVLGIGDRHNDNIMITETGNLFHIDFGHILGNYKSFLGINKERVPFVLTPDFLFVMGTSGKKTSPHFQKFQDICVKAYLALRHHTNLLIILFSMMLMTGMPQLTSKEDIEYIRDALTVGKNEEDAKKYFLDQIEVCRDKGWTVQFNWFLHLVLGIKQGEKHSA

[4] = target: T1, Phosphatidylinositol 4,5-bisphosphate 3-kinase catalytic subunit gamma isoform; experiment: Inhibition of PI3K p120gamma (unknown origin) using phosphatidylinositol 4,5-bisphosphate as substrate in presence of ATP incubated for 60 mins by ADP-Glo assay

Compound: CC(C)c1cc(-c2cnc3[nH]cc(-c4cnn(C)c4)c3c2)cc2c1C(=O)N([C@@H](C)C1CC1)C2
Selectivity ratio (Homo sapiens [1]): 898
Selectivity ratio (Homo sapiens [2]): 1380
IC50 [3]: 300 nM
IC50 [4]: 4.2 nM

Compound: Cc1cc(-c2cnc3[nH]c(=O)ccc3c2)cc2c1C(=O)N(C(C)C1CC1)C2 (racemic)
IC50 [4]: 530 nM

Compound: Cc1cc(-c2cnc3[nH]cc(C4CCNC4)c3c2)cc2c1C(=O)N([C@@H](C)C1CC1)C2 (stereo not given in full)
Selectivity ratio (Homo sapiens [1]): > 36
Selectivity ratio (Homo sapiens [2]): > 36
IC50 [3]: 3800 nM
IC50 [4]: 281 nM

Compound: CNS(=O)(=O)c1cc(-c2cnc3[nH]cc(-c4cnn(C)c4)c3c2)cc2c1C(=O)N([C@@H](C)C1CC1)C2
Selectivity ratio (Homo sapiens [1]): > 4160
Selectivity ratio (Homo sapiens [2]): 101
IC50 [3]: 70 nM
IC50 [4]: 4 nM

Compound: Cc1cc(-c2cnc3[nH]cc(-c4ccc(C(=O)O)c(N5CCCC5)c4)c3c2)cc2c1C(=O)N([C@@H](C)C1CC1)C2
Selectivity ratio (Homo sapiens [1]): 853
Selectivity ratio (Homo sapiens [2]): 49
IC50 [3]: 170 nM
IC50 [4]: 4 nM

Compound: Cc1cc(-c2cnc3[nH]cc(-c4ccncc4)c3c2)cc2c1C(=O)N(C(C1CC1)C1CC1)C2
Selectivity ratio (Homo sapiens [1]): 253
Selectivity ratio (Homo sapiens [2]): 901
IC50 [3]: 800 nM
IC50 [4]: 6.8 nM

Compound: Cc1cc(-c2cnc3[nH]cc(C(=O)O)c3c2)cc2c1C(=O)N([C@@H](C)C1CC1)C2
Selectivity ratio (Homo sapiens [1]): > 775
Selectivity ratio (Homo sapiens [2]): > 775
IC50 [3]: 11000 nM
IC50 [4]: 13 nM

Compound: C[C@@H](C1CC1)N1Cc2cc(-c3cnc4[nH]cc(-c5cnn(C)c5)c4c3)cc(C(F)(F)F)c2C1=O
Selectivity ratio (Homo sapiens [1]): 2800
Selectivity ratio (Homo sapiens [2]): 266
IC50 [3]: 90 nM
IC50 [4]: 2.4 nM

Compound: Cc1cc(-c2cnc3[nH]nnc3c2)cc2c1C(=O)N(C(C)C1CC1)C2 (racemic)
IC50 [4]: 1600 nM

Compound: Cc1cc(-c2cnc3[nH]cc(-c4cc(C)c(C(=O)O)c(C5CC5)c4)c3c2)cc2c1C(=O)N([C@@H](C)C1CC1)C2
Selectivity ratio (Homo sapiens [1]): 691
Selectivity ratio (Homo sapiens [2]): 367
IC50 [3]: 70 nM
IC50 [4]: 1.2 nM

Compound: Cc1cc(-c2cnc3[nH]ncc3c2)cc2c1C(=O)N([C@@H](C)C1CC1)C2
IC50 [4]: 35 nM

Compound: Cc1cc(-c2cnc3[nH]cc(-c4ccncc4)c3c2)cc2c1C(=O)N(C1CCOCC1)C2
Selectivity ratio (Homo sapiens [1]): 7
Selectivity ratio (Homo sapiens [2]): 18
IC50 [3]: 1000 nM
IC50 [4]: 50 nM

Compound: COc1cc(-c2cnc3[nH]cc(-c4cnn(C)c4)c3c2)cc2c1C(=O)N([C@@H](C)C1CC1)C2
Selectivity ratio (Homo sapiens [1]): > 1670
Selectivity ratio (Homo sapiens [2]): 365
IC50 [3]: 170 nM
IC50 [4]: 4.3 nM

Compound: Cc1cc(-c2cnc3c(c2)CC(=O)N3)cc2c1C(=O)N(C(C)C1CC1)C2 (racemic)
IC50 [4]: 600 nM

Compound: COC[C@H](C)N1Cc2cc(-c3cnc4[nH]cc(-c5ccncc5)c4c3)cc(C)c2C1=O
Selectivity ratio (Homo sapiens [1]): 51
Selectivity ratio (Homo sapiens [2]): 216
IC50 [3]: 600 nM
IC50 [4]: 9 nM

Compound: Cc1cc(-c2cnc3[nH]ccc3c2)cc2c1C(=O)N([C@@H](C)C1CC1)C2
IC50 [4]: 50 nM

Compound: C[C@@H](C1CC1)N1Cc2cc(-c3cnc4[nH]cc(-c5cnn(C)c5)c4c3)cc(NS(C)(=O)=O)c2C1=O
Selectivity ratio (Homo sapiens [1]): 449
Selectivity ratio (Homo sapiens [2]): 615
IC50 [3]: 150 nM
IC50 [4]: 4 nM

Compound: Cc1cc(-c2cnc3[nH]nc(-c4ccncc4)c3c2)cc2c1C(=O)N([C@@H](C)C1CC1)C2
IC50 [4]: 8 nM

Compound: Cc1cc(-c2cnc3[nH]cc(C(=O)NC4CCOCC4)c3c2)cc2c1C(=O)N([C@@H](C)C1CC1)C2
Selectivity ratio (Homo sapiens [1]): > 2240
Selectivity ratio (Homo sapiens [2]): 1030
IC50 [3]: 320 nM
IC50 [4]: 4.5 nM

Compound: Cc1cc(-c2cnc3[nH]cc(-c4ccncc4)c3c2)cc2c1C(=O)N(C(C)(C)C)C2
Selectivity ratio (Homo sapiens [1]): 62
Selectivity ratio (Homo sapiens [2]): 107
IC50 [3]: 720 nM
IC50 [4]: 26 nM

Compound: Cc1cc(-c2cnc3[nH]ncc3c2)cc2c1C(=O)N(C(C)C1CC1)C2 (racemic)
IC50 [4]: 90 nM

Compound: Cc1cc(-c2cnc3[nH]ncc3n2)cc2c1C(=O)N([C@@H](C)C1CC1)C2
IC50 [4]: 80 nM

Compound: CC(=O)Nc1cc(-c2cnc3[nH]cc(-c4cnn(C)c4)c3c2)cc2c1C(=O)N([C@@H](C)C1CC1)C2
Selectivity ratio (Homo sapiens [1]): > 1060
Selectivity ratio (Homo sapiens [2]): > 2740
IC50 [3]: 500 nM
IC50 [4]: 2.5 nM

Compound: C[C@@H](C1CC1)N1Cc2cc(-c3cnc4[nH]cc(-c5cnn(C)c5)c4c3)cc(Cl)c2C1=O
Selectivity ratio (Homo sapiens [1]): 455
Selectivity ratio (Homo sapiens [2]): 533
IC50 [3]: 170 nM
IC50 [4]: 2.4 nM

Compound: CC[C@@H](C1CC1)N1Cc2cc(-c3cnc4[nH]cc(-c5ccncc5)c4c3)cc(C)c2C1=O
Selectivity ratio (Homo sapiens [1]): 255
Selectivity ratio (Homo sapiens [2]): > 414
IC50 [3]: 800 nM
IC50 [4]: 6 nM

Compound: Cc1cc(-c2cnc3[nH]cc(-c4ccncc4)c3c2)cc2c1C(=O)N(CC(F)(F)F)C2
Selectivity ratio (Homo sapiens [1]): 42
Selectivity ratio (Homo sapiens [2]): 62
IC50 [3]: 1600 nM
IC50 [4]: 25.3 nM

Compound: C[C@@H](C1CC1)N1Cc2cc(-c3cnc4[nH]cc(-c5cnn(C)c5)c4c3)cc(S(C)(=O)=O)c2C1=O
Selectivity ratio (Homo sapiens [1]): 1020
Selectivity ratio (Homo sapiens [2]): 289
IC50 [3]: 50 nM
IC50 [4]: 1.5 nM

Compound: Cc1cc(-c2cnc3[nH]cc(-c4ccc(C(=O)O)c(C(F)(F)F)c4)c3c2)cc2c1C(=O)N([C@@H](C)C1CC1)C2
Selectivity ratio (Homo sapiens [1]): 380
Selectivity ratio (Homo sapiens [2]): 591
IC50 [3]: 350 nM
IC50 [4]: 1.64 nM

Compound: Cc1cc(-c2cnc3[nH]cc(-c4ccccc4C(=O)O)c3c2)cc2c1C(=O)N([C@@H](C)C1CC1)C2
Selectivity ratio (Homo sapiens [1]): > 59
Selectivity ratio (Homo sapiens [2]): > 59
IC50 [3]: 15000 nM
IC50 [4]: 180 nM

Compound: Cc1cc(-c2cnc3[nH]cc(C(=O)Nc4ccncc4)c3c2)cc2c1C(=O)N([C@@H](C)C1CC1)C2
Selectivity ratio (Homo sapiens [1]): > 856
Selectivity ratio (Homo sapiens [2]): > 856
IC50 [3]: 1300 nM
IC50 [4]: 12 nM

Compound: Cc1cc(-c2cnc3[nH]cc(-c4ccncc4)c3c2)cc2c1C(=O)N([C@@H](C)c1ccc(F)cc1)C2
Selectivity ratio (Homo sapiens [1]): 142
Selectivity ratio (Homo sapiens [2]): > 190
IC50 [3]: 2100 nM
IC50 [4]: 40 nM

Compound: Cc1cc(-c2cnc3cn[nH]c3c2)cc2c1C(=O)N(C(C)C1CC1)C2 (racemic)
IC50 [4]: 490 nM

Compound: CNC(=O)c1cc(-c2cnc3[nH]cc(-c4cnn(C)c4)c3c2)cc2c1C(=O)N([C@@H](C)C1CC1)C2
Selectivity ratio (Homo sapiens [1]): 1050
Selectivity ratio (Homo sapiens [2]): > 1180
IC50 [3]: 730 nM
IC50 [4]: 7.9 nM

Compound: Cc1cc(-c2cnc3[nH]cc(-c4ccncc4)c3c2)cc2c1C(=O)N(C(C)(C)C1CC1)C2
Selectivity ratio (Homo sapiens [1]): 74
Selectivity ratio (Homo sapiens [2]): 100
IC50 [3]: 1100 nM
IC50 [4]: 28 nM

More lines, now with the values ahead:

Selectivity ratio (Homo sapiens [1]): 1060
Selectivity ratio (Homo sapiens [2]): 463
IC50 [3]: 400 nM
IC50 [4]: 5 nM
Compound: Cc1cc(-c2cnc3[nH]cc(-c4ccc(S(N)(=O)=O)cc4)c3c2)cc2c1C(=O)N([C@@H](C)C1CC1)C2

Selectivity ratio (Homo sapiens [1]): > 242
Selectivity ratio (Homo sapiens [2]): > 242
IC50 [3]: 3500 nM
IC50 [4]: 42 nM
Compound: Cc1cc(-c2cnc3[nH]cc(-c4ccc(C#N)cc4)c3c2)cc2c1C(=O)N([C@@H](C)C1CC1)C2

Selectivity ratio (Homo sapiens [1]): > 578
Selectivity ratio (Homo sapiens [2]): > 552
IC50 [3]: 4000 nM
IC50 [4]: 16 nM
Compound: Cc1cc(-c2cnc3[nH]cc(-c4ccnc(C(F)(F)F)c4)c3c2)cc2c1C(=O)N([C@@H](C)C1CC1)C2

Selectivity ratio (Homo sapiens [1]): 224
Selectivity ratio (Homo sapiens [2]): 344
IC50 [3]: 59 nM
IC50 [4]: 2.1 nM
Compound: Cc1cc(-c2cnc3[nH]cc(-c4ccc(C(=O)O)c(C(C)C)c4)c3c2)cc2c1C(=O)N([C@@H](C)C1CC1)C2

Selectivity ratio (Homo sapiens [1]): 416
Selectivity ratio (Homo sapiens [2]): 183
IC50 [3]: 600 nM
IC50 [4]: 3.3 nM
Compound: Cc1cc(-c2cnc3[nH]cc(-c4ccc(C(C)(C)O)nc4)c3c2)cc2c1C(=O)N([C@@H](C)C1CC1)C2

Selectivity ratio (Homo sapiens [1]): 369
Selectivity ratio (Homo sapiens [2]): 494
IC50 [3]: 170 nM
IC50 [4]: 1.5 nM
Compound: COc1cc(-c2c[nH]c3ncc(-c4cc(C)c5c(c4)CN([C@@H](C)C4CC4)C5=O)cc23)ccc1C(=O)O

Selectivity ratio (Homo sapiens [1]): > 308
Selectivity ratio (Homo sapiens [2]): > 308
IC50 [3]: 3500 nM
IC50 [4]: 33 nM
Compound: Cc1cc(-c2cnc3[nH]cc(-c4ccccn4)c3c2)cc2c1C(=O)N([C@@H](C)C1CC1)C2

IC50 [4]: 9 nM
Compound: Cc1cc(-c2cnc3[nH]cc(-c4ccncc4)c3c2)cc2c1C(=O)N([C@H](C)C1CC1)C2

Selectivity ratio (Homo sapiens [1]): 585
Selectivity ratio (Homo sapiens [2]): 494
IC50 [3]: 40 nM
IC50 [4]: 1.6 nM
Compound: Cc1cc(-c2cnc3[nH]cc(-c4ccc(C(=O)O)c(C5CC5)c4)c3c2)cc2c1C(=O)N([C@@H](C)C1CC1)C2

Selectivity ratio (Homo sapiens [1]): 546
Selectivity ratio (Homo sapiens [2]): 1050
IC50 [3]: 700 nM
IC50 [4]: 3.1 nM
Compound: Cc1cc(-c2cnc3[nH]cc(-c4ccc(C(=O)O)c(F)c4)c3c2)cc2c1C(=O)N([C@@H](C)C1CC1)C2

Selectivity ratio (Homo sapiens [1]): 321
Selectivity ratio (Homo sapiens [2]): 772
IC50 [3]: 110 nM
IC50 [4]: 2.7 nM
Compound: Cc1cc(-c2cnc3[nH]cc(-c4cccc(C(=O)O)c4)c3c2)cc2c1C(=O)N([C@@H](C)C1CC1)C2

Selectivity ratio (Homo sapiens [1]): 89
Selectivity ratio (Homo sapiens [2]): 112
IC50 [3]: 400 nM
IC50 [4]: 7 nM
Compound: Cc1cc(-c2cnc3[nH]cc(-c4cccnc4)c3c2)cc2c1C(=O)N(C(C)C1CC1)C2 (racemic)

Selectivity ratio (Homo sapiens [1]): 711
Selectivity ratio (Homo sapiens [2]): 226
IC50 [3]: 230 nM
IC50 [4]: 2.59 nM
Compound: Cc1cc(-c2cnc3[nH]cc(-c4ccc(C(N)=O)cc4)c3c2)cc2c1C(=O)N([C@@H](C)C1CC1)C2

Selectivity ratio (Homo sapiens [1]): 466
Selectivity ratio (Homo sapiens [2]): 128
IC50 [3]: 200 nM
IC50 [4]: 26 nM
Compound: Cc1cc(-c2cnc3[nH]cc(-c4ccn(C)c(=O)c4)c3c2)cc2c1C(=O)N([C@@H](C)C1CC1)C2

Selectivity ratio (Homo sapiens [1]): 214
Selectivity ratio (Homo sapiens [2]): 640
IC50 [3]: 400 nM
IC50 [4]: 5.8 nM
Compound: Cc1cc(-c2cnc3[nH]cc(-c4ccnc(N)c4)c3c2)cc2c1C(=O)N([C@@H](C)C1CC1)C2

Selectivity ratio (Homo sapiens [1]): > 1560
Selectivity ratio (Homo sapiens [2]): > 1900
IC50 [3]: 260 nM
IC50 [4]: 5 nM
Compound: Cc1ccc(-c2c[nH]c3ncc(-c4cc(C)c5c(c4)CN([C@@H](C)C4CC4)C5=O)cc23)cc1C(=O)O
